Measurements published in article PMC7217877, “N-AS-triggered SPMs are direct regulators of microglia in a model of Alzheimer’s disease” (Nature Communications, 2020).
Where “and” joins values, the source holds several entries; their conditions need not be identical. Equal entries are not always repeated. Where two headings read alike, the source gives them in different places.

Experiments:
[1] = molecular target: T1, SphK1 WT (Homo sapiens, UniProt Q9NYA1); assay: filter binding assay of [3H] acetyl-CoA to SphK1 (Supplementary Fig 1f,g); settings: for Km: read-out: KM of acetyl-CoA binding to SphK1
T1 construct: His (N); made in house
Description: Single point mutations in SphK1 (R56A, R57A, R24A, R185A, D178A, and F192A) and COX2 (S565A, N181A, T564A, and S567A) were generated using the In-Fusion Cloning Kits (Clontech) and ORF cDNA expression plasmids of human SphK1 and COX2 gene (Sino Biological Inc, HG15679-NH and HG12036-NH), according to the manufacturer’s instructions. The forward and reverse primers described in Supplementary Table 4. The SphK1 WT, SphK1 mutants, COX2 WT, and COX2 mutant plasmids were transformed in the One shot TOP 10 competent cell (Invitrogen). The bacteria were grown in Luria-Bertani (LB, Invitrogen) plates supplemented with 50 μg ml^−1 kanamycin (Sigma-Aldrich) at 37 °C. The bacterial cell pellets were resuspended in lysis buffer containing 20 mM sodium phosphate (GE Healthcare), 500 mM NaCl (GE Healthcare), 20 mM imidazole (pH 7.4) (GE Healthcare), 0.2 mg ml^−1 lysozyme (Sigma-Aldrich), 20 μg ml^−1 DNase I (Roche), 1 mM MgCl2 (Sigma-Aldrich), and 1 mM PMSF (Sigma-Aldrich) before being lysed by sonication and clarified by centrifugation at 15,493×g for 10 min. Proteins were purified from the soluble fraction using His-Spin Trap columns (GE Healthcare) and the binding and acetylation assays were performed.
Briefly, SphK1 WT and mutant enzymes (1 mU) were resuspended in 100 μl reaction buffer (20 mM HEPES; pH 7.4, 50 mM NaCl, 10 mM MgCl2, 1 mM EGTA, 0.02% Triton-X100, and 100 μM sphingosine, all from Sigma-Aldrich). […] Briefly, COX2 WT and mutant enzymes (1 mU) were resuspended in 100 μl reaction buffer (20 mM HEPES; pH 7.4, 50 mM NaCl, 10 mM MgCl2, 1 mM EGTA, and 0.02% Triton-X100, all from Sigma-Aldrich). Reactions were initiated by adding [^14C] N-AS (1–200 μM (0.1–20 μCi), ARC UK Ltd, ARC-1024) and incubated at 37 °C for 1 h. The reactions were terminated by adding 100 μl of ice-cold reaction buffer containing 5 mM cold N-AS and immediately filtered through P30 filtermat (Perkin-Elmer), followed by five washes.
The binding velocity was plotted and the Kcat and KM values were calculated from the Michaelis-Menten analysis using the Sigma-plot program (ver 10.0, Systat software Inc.).

[2] = test system: APP/PS1 mice; assay: Imaris-based morphology of microglia (Supplementary Fig 5b; Additional Fig 2); assay type: in vivo, mouse
Procedure: (§1) Thioflavin S (Sigma-Aldrich) staining was carried out according to previously described procedures. We used 6E10 (mouse, 1:100, Signet, SIG39300), anti-20G10 (mouse, 1:1000, provided by D. R. Howlett, GlaxoSmithKline, Harlow, Essex, UK) for Aβ42, anti-G30 (rabbit, 1:1000, provided by D. R. Howlett) for Aβ40, SMA (mouse, 1:400, Sigma-Aldrich, A2547), AT8 (mouse, 1:500, Thermo Fisher Scientific, MN1020), Caspase-3 (mouse, 1:200, Novus Biologicals, NB100-56708), ac-S565 (rabbit, 1:100), COX2 (mouse, 1:250, Thermo Fisher Scientific, 35-8200), Iba1 (rabbit, 1:500, Wako, 019-19941 and goat, Abcam, ab5076), NeuN (mouse, 1:500, Millipore, MAB177), GFAP (rabbit, 1:500, Dako, N1506 and chicken, 1:500, Abcam, ab4674), and Lamp1 (mouse, 1:200, Abcam, ab24170). The sections were analyzed with a laser-scanning confocal microscope (FV3000; Olympus) or with a BX51 microscope (Olympus). MetaMorph software (Molecular Devices) was used to quantification. Three-dimensional reconstruction of microglia was recorded and analyzed using IMARIS software (Bitplane)[11]. For the analysis of age-dependent microglial COX2^+ CX3CR1^+ cells in WT and APP/PS1 mice, COX2 (rabbit, 1:100, Abcam, ab15191) and CX3CR1 (mouse, 1:100, BioLegend, 149008) antibody were used and the images were acquired on Alexa 488 and APC Channel with performed using Operetta CLS and Analysis Software 4.5 (Perkin-Elmer). […]

[3] = test system: 5×FAD mice; assay: Iba1+ microglia and GFAP+ astrocyte quantification (Supplementary Fig 8d,e); assay type: in vivo, mouse
Procedure: as §1

[4] = ATP 1000 µM, 100 µM sphingosine
[5] = SphK1 (WT), Supplementary Fig 1g

T1 sequence (Q9NYA1 whole entry): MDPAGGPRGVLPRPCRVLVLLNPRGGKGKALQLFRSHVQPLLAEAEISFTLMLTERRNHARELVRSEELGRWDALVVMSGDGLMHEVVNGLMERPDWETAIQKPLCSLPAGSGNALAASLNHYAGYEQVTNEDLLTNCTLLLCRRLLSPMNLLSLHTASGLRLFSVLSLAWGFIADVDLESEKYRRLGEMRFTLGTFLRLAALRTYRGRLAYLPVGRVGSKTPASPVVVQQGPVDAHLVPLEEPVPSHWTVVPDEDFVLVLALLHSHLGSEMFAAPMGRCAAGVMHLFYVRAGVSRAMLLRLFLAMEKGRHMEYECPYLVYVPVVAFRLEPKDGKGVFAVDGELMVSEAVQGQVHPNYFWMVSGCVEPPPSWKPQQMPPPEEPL

Row | SMILES | Kcat of acetyl-CoA binding to SphK1 ([1]; ATP 0 µM, 100 µM sphingosine) | Kcat of acetyl-CoA binding to SphK1 ([1]; ATP 10 µM, 100 µM sphingosine) | Kcat of acetyl-CoA binding to SphK1 ([1]; ATP 100 µM, 100 µM sphingosine) | Kcat of acetyl-CoA binding to SphK1 [1, 4] | Kcat of acetyl-CoA binding to SphK1 [1, 5] | Km ([1]; ATP 0 µM, 100 µM sphingosine) | Km ([1]; ATP 10 µM, 100 µM sphingosine) | Km ([1]; ATP 10 µM, 100 µM sphingosine, listed as acetyl-CoA) | Km ([1]; ATP 100 µM, 100 µM sphingosine) | Km ([1]; ATP 100 µM, 100 µM sphingosine, listed as acetyl-CoA) | Km [1, 4] | Km ([1]; ATP 1000 µM, 100 µM sphingosine, listed as acetyl-CoA) | Km [1, 5] | morphology of non-plaque-associated microglia ([2]; APP/PS1 vs N-AS-treated APP/PS1, Additional Fig. 2 of peer review file) | morphology of microglia surrounding Aβ ([2]; N-AS vs vehicle APP/PS1) | GFAP+ astrocyte ([3]; 5xFAD+N-AS, sFig 8e (sheet untitled)) | neuroinflammation ([3]; 5×FAD, N-AS 30 mg kg^-1 daily s.c. 4 weeks)
1 | CC(=O)SCCNC(=O)CCNC(=O)[C@H](O)C(C)(C)COP(=O)(O)OP(=O)(O)OC[C@H]1O[C@@H](n2cnc3c(N)ncnc32)[C@H](O)[C@@H]1OP(=O)(O)O [Acetyl-CoA, acetyl-CoA] | 0.0169 min⁻¹ | 0.0161 min⁻¹ | 0.0110 min⁻¹ | 0.0083 min⁻¹ | 0.0173 min⁻¹ | 11 µM | 24.5 µM | 24.5 µM | 35.2 µM | 35.2 µM | 39 µM | 39 µM | 10.5 µM | – | – | – | –
2 | CCCCCCCCCCCCC/C=C/[C@@H](O)[C@H](CO)NC(C)=O [N-AS, N-((2S,3R,E)-1,3-Dihydroxyoctadec-4-en-2-yl)acetamide] | – | – | – | – | – | – | – | – | – | – | – | – | – | did not differ between the groups | phagocytic morphology (ameboid microglial morphology) was more evident | 1.617 and 1.112 and 1.516 and 1.497 and 1.364 and 1.314 | similarly improved AD pathology of 5×FAD mice
